# Patent US20170037425A1, “METHOD FOR IMPROVING PLANT TRAIT” (SHANGHAI INSTITUTES FOR BIOLOGICAL SCIENCES, CHINESE …, priority 2012, published 2017)
# Entries after “also recorded” stand apart in the source; their conditions may differ.
# Columns and labels:
# [1] = In vitro H2O hydrolysis and oxygen evolution catalyzed by LEAT protein under light; format: biochemical; set-up: key to O2 evolution activity: +: similar O2 evolution activity as that of YFP; ++: higher O2 evolution activity than that of YFP by at least one order of magnitude; weak: lower activity than that of YFP by at least one order of magnitude
# Method: 1.85 ml of 50 mM phosphate buffer (pH6.5) was added in the reaction vessel of Clark-type oxygen electrode, then LEAT proteins (at a final concentration of 0.02-1 μg/ml) and 400 μM 2,3,5-trimethyl-1,4-benzoquinone (TMBQ) or other quinones were sequentially added into the buffer in dark. The oxygen evolution rate was measured under the light with corresponding excitation wave length for LEAT proteins and light intensity at 1-2 μmol m^−2 s^−1.
# [2] = system: Brassica; test: Chlorophyll fluorescence and P700 oxidation-reduction in transgenic Brassica; format: in vivo, Brassica napus L.
# Method: Electron transfer efficiency of leaves was measured by chlorophyll fluorescence. The change of chlorophyll fluorescence parameter was monitored with PAM-2000 fluorometer (Walz, Effeltrich, Germany). Electron transfer efficiency of leaves in response to light was measured after 30-min-dark adaption, Fo represents minimum PSII fluorescence after measuring light is turned on. Fm represents maximum PSII fluorescence after a saturating pulse of white light is turned on. The photochemical efficiency of PSII was calculated with the equation: ΦPSII=(Fm′−Fs)/Fm′ (Genty, B., Briantais, J. M., Baker, N. R. (1989). The relationship between the quantum yield of photosynthetic electron transport and quenching of Chl fluorescence. Biochimica et Biophysica Acta, 990, 87-92). The excitation pressure of chlorophyll was calculated with the equation: 1−qL=1−(Fm′−Fs)/(Fm′−Fo)×Fo′/Fs (Kramer, D. M., Johnson, G., Kiirats, O., Edwards, G. E. (2004) New fluorescence parameters for the determination of Q(A) redox state and excitation energy fluxes. Photosynthesis Research, 79, 209-218).
# PAM chlorophyll fluorometer with ED-P700 DW-E light absorb unit was used to measure the change of the light absorb at 810-830 nm, then the change of oxidation-reduction state of P700 was obtained. […]
# [3] = system: Brassica; test: Millisecond-delayed light emission in transgenic Brassica leaves; format: in vivo, Brassica napus L.; conditions: white light and green light
# Method: Measurements of millisecond-delayed light emission were carried out according to the method described in Chen et al., 2010 (Reversible association of ribulose-1,5-bisphosphate carboxylase/oxygenase activate with the thylakoid membrane depends upon the ATP level and pH in rice without heat stress. Journal of Experimental Botany 61: 2939-2950). Leaf samples with same size were treated in dark for same time and millisecond-delayed light emission was measured in situ. The leaf sample was illuminated with light passing through holes arranged on two rotating wheels, so that the measurement can be partitioned into consecutive cycles of 1 ms excitation by light followed by 4.6 ms darkness. The delayed light emission between 2.8 and 3.8 ms after every flash was recorded. The white light source was supplied by a halogen lamp, and the green light source was obtained by passing the white light source through a 530 nm filter.
# [4] = system: Brassica; test: State transition of leaves and thylakoids of transgenic Brassica; format: in vivo, Brassica napus L.
# Method: State transition of leaves was measured using PAM-101/PDA100 fluorometer (Walz) as described in (L. Dietzel et al., The Plant Cell 23, 2964 (Aug. 1, 2011). PSII light with a PFD of 100 μmol m^−2s^−1 was provided by a Schott KL-1500 lamp (Walz). PSI light with a PFD of 6 μmol m^−2s^−1 was provided by PAM-101 (Walz). The half-time (t1/2) of state 1-state 2 transition was determined by calculate the decrease of the fluorescence after PSI light was switched off. The half-time for state 2-state 1 transition was determined following L. Dietzel et al., The Plant Cell 23, 2964 (Aug. 1, 2011). Thylakoids isolated from Brassica leaves were added into STN buffer supplemented with 10 mM ATP in a final concentration of 5-10 μg/ml. Half of thylakoids were illuminated and half of the thylakoids were treated in dark for 20-30 min in room temperature, respectively. Chlorophyll α fluorescence emission spectra were recorded at 77K (in liquid nitrogen) using F-4600 spectrofluorometer (Hitachi, Japan), The excitation wavelength was set at 435 nm. Data were the average of four measurements.
# [5] = system: Brassica; test: Chlorophyll and pigment contents of transgenic Brassica leaves; format: in vivo, Brassica napus L.
# Method: Chlorophylls and pigments were extracted from Brassica leaves with 80% acetone. Chlorophyll contents were measured as described by Arnon D J 1949, Plant Physiol 24:1-15. Carotenoid contents were measured as described by Niyogi et al., (1997), Proc. Natl. Acad. Sci. U.S.A. 94, 14162-14167.
# [6] = system: etiolated Brassica hypocotyls; test: Respiration rate and oxygen evolution in etiolated hypocotyls of transgenic Brassica; format: in vivo, Brassica napus L.; conditions: etiolated hypocotyl
# Method: 5-6 individual hypocotyls (5-6 cm in length) were collected from 1-week-old etiolated Brassica. The roots and cotyledons were detached and the hypocotyls were cut into 1 mm in length after weighing. The hypocotyls were put into the reaction vessel of the Clack-type oxygen electrode. The changes of dissolved oxygen content in solution over measuring time were recorded in dark or under light, respectively. Then 15 mM HgCl2 was added to block the respiration, and the change of dissolved oxygen content in solution was recorded. The difference between the respiration rate under light and in dark, and the oxygen evolution rate when respiration was blocked by HgCl2 was calculated.
# [7] = system: wheat; test: Phenotype of transgenic wheat; format: in vivo
# Method: Wheat transformation was performed with method described in Supartana P, Shimizu T, Nogawa M, Shioiri H, Nakajima T, Haramoto N, Nozue M, and Kojima M. Development of simple and efficient in Planta transformation method for wheat (Triticum aestivum L.) Using Agrobacterium tumefaciens, Journal of Bioscience and Bioengineering 102, 162-170.
# [8] = system: rice; test: Phenotype of transgenic rice; format: in vivo
# Method: Rice transformation was performed with method described in Liu Qiaoquan, Zhang Jingliu, Wang Zongyang, Hong Mengming and Gu Minghong (1998). A highly efficient transformation system mediated by Argrobacteriun tumefaciens in rice (Oryza sativa L.). Acta Phytophysiologica Sinica 24, 259-271.
substance,measurement,setting,value
"mCherry: red fluorescent protein, amino acid sequence SEQ ID NO: 2",water photohydrolysis and O2 evolution activity under light,[1]; TMBQ substituted with DQ or UQ,does not have water photohydrolysis and O2 evolution activity
same,activity of water hydrolysis among the quinones tested (order),"[1]; different quinones, under light",TMBQ>DMBQ2>MBQ>DMBQ1
same,O2 evolution activity,"[1]; water hydrolysis and O2 evolution under light, relative to YFP",+
same,initial rate of P700^+ reduction (PSI cyclic electron transport) vs WT,[2]; transgenic Brassica leaves,much higher
same,photochemical efficiency of PSII (ΦPSII),[2]; transgenic Brassica transferred from red+blue light to white light,increased
same,slow phase of millisecond delay light evolution (ms-DLE) vs WT,[3],higher
same,state transition of thylakoid membrane,"[4]; transgenic Brassica grown under red+blue light, 77K fluorescence",no significant difference
same,percentage of state transition of thylakoid membrane,"[4]; transgenic Brassica grown under white light, 77K fluorescence",increased
same,t0.5 for state transition between St1 and St2,[4]; transgenic Brassica live leaf,significantly decreased
same,accessory photosynthetic pigments (carotenoids) content,[5],increased
same,chlorophyll content and ratio of Chl a/b,[5],did not change
same,net O2 evolution,"[6]; O2 uptake inhibited by HgCl2, under light",observed significantly
same,O2 uptake rate under light vs WT,[6]; without HgCl2,significant lower
same,seed size and grain yield per plant vs WT,[7],increase
same,seed size and panicle size vs WT,[7],significantly increased
same,plant growth vs WT,[8],grow better than WT; also recorded: improve the growth
same,seed size and grain yield per plant vs WT,[8],increase
